Publication PMC12383972, “Oral Pharmacokinetic Evaluation of a Microemulsion-Based Delivery System for Novel A190 Prodrugs” (Biomolecules, 2025)
In brackets after ≈: the same amount, converted by molar mass. Read-outs that look alike come from different tables or passages of the source. Values belong to the molecule of their own block, whether it stands above or below them.

Tests used:
CYP450 = system: CYP450; set-up: method as in PMID 32582345; settings: preclinical assessment; cited from earlier work
[1] = set-up: method as in PMID 39879378; settings: PAMPA, cited from earlier work
Caco-2 cells [2] = system: Caco-2 cells; set-up: method as in PMID 39879378; settings: Caco-2, in 0.2% DMSO, 24 h and 48 h; cited from earlier work
HepG2 cells [3] = system: HepG2 cells; set-up: method as in PMID 39879378; settings: HepG2, in 0.2% DMSO, 24 h and 48 h; cited from earlier work
hERG = system: hERG; set-up: method as in PMID 32582345; settings: preclinical assessment; cited from earlier work
PPARα = system: PPARα; set-up: method as in PMID 32096640, PMID 39961437; settings: cited from earlier work
[4] = set-up: method as in PMID 32582345; settings: preclinical assessment; cited from earlier work
[5] = Bioconversion of prodrugs in rabbit plasma; format: in vitro ADME; settings: 37 °C; for half-life at 100 μM / Prodrug bioconversion half-life (Rabbit plasma): 100 μM prodrug; for half-life at 100 μM: pooled rabbit plasma; for Prodrug bioconversion half-life (Rabbit plasma): Figure 3E
Protocol: (§1) Conversion of the respective prodrugs to the parent drug A190 was assessed in pooled rat and rabbit plasma. Following pre-incubation of plasma at 37 °C for 5 min, stock solution of each prodrug (10 mM) was spiked into the plasma to reach a final concentration of 100 μM. The mixture was incubated at 37 °C, 200 rpm on a temperature-controlled orbital shaker. Incubation mixture (200 μL) was withdrawn at pre-determined time points, and the reaction was terminated by the addition of 700 μL of ice cold ACN. 100 μL of internal standard (0.5 μg/mL of fenofibric acid) was then spiked, and the samples were vortexed and centrifuged at 10,000× g for 10 min. The resulting supernatants were collected and filtered using PTFE filters and injected into HPLC-UV system. The LC system was a reverse phased Shimadzu Prominence (Kyoto, Japan) using a Pursuit 5 C18 column. Isocratic separation was performed with mobile phase consisting of ACN/water (80/20 v/v) containing 0.1% trifluoroacetic acid and monitored at a UV detection of 227 nm.

[6] = Bioconversion of prodrugs in rat plasma; format: in vitro ADME; settings: 37 °C; for half-life at 100 μM / Prodrug bioconversion half-life (Rat plasma): 100 μM prodrug; for half-life at 100 μM: pooled rat plasma; for Prodrug bioconversion half-life (Rat plasma): Figure 3E
Protocol: as §1

[7] = Chemical hydrolysis stability in PBS pH 7.4; format: physicochemical; settings: PBS pH 7.4, 37 °C, 100 μM
Protocol: Chemical hydrolysis stability of each prodrug was assessed in a physiological pH 7.4 using phosphate buffered saline solution (PBS) as previously described. After preincubation of PBS solution at 37 °C for 5 min, stock solution of each prodrug (10 mM) was spiked to a final concentration of 100 μM. The samples were then incubated at 37 °C on a temperature-controlled orbital shaker operating at 200 rpm. At predetermined time points, 200 μL of incubation mixture was withdrawn and quenched with 100 μL of internal standard (0.5 μg/mL of fenofibric acid) and 700 μL ice cold ACN. Drug concentration was analyzed using HPLC-UV method as described earlier to assess the amount of prodrug recovered compared to the starting timepoint.

Caco-2 cells [8] = assay: MTT cell viability assay, Caco-2; format: cell-based, human; settings: Caco-2, 50 µM, 24 h and 48 h
Protocol: (§2) To evaluate the cytotoxicity of free A190-PD-60 (in 0.2% DMSO in DMEM), vehicle microemulsion, and A190-PD-60-ME against Caco-2 cells and HepG2 cells, an MTT assay using 3-(4,5-dimethylthiazol-2-yl)-2,5-diphenyltetrazolium bromide was performed as described before. Caco-2 and HepG2 cells were first cultured in DMEM supplemented with 10% FBS, penicillin (100 U/mL), and streptomycin (100 μg/mL) at 37 °C in a 5% CO2 humidified incubator. Upon reaching confluence, cells were trypsinized and seeded at 10 × 10^4 cells/well in 96-well plates. After 48 h, the medium was replaced with fresh dilutions of free A190-PD-60, vehicle microemulsion, or A190-PD-60-ME (0.1–50 µM) in DMEM. Controls included untreated cells and cells treated with 0.2% DMSO in DMEM. Following 24 h and 48 h incubation, the medium was replaced with 100 µL of MTT solution (5 mg/mL in PBS) and incubated for 3 h. The supernatant was then removed, and formazan crystals were dissolved in 100 µL DMSO. Absorbance was measured at 540 nm, and cell viability (%) was calculated as (OD of samples/OD of control) × 100.

[9] = BCS classification from solubility and PAMPA permeability; settings: predicted from low solubility and low permeability
[10] = Parallel artificial membrane permeability assay (PAMPA); format: in vitro ADME; settings: PBS pH 6.8, 200 µg/mL donor, 5 h, room temperature
Protocol: Parallel artificial membrane permeability assay (PAMPA) is a widely used screening method to predict the passive intestinal permeability using a phospholipid coated lipophilic membrane which simulates the properties of the intestinal wall. The in vitro intestinal membrane permeability of free A190-PD-60 (dispersed in PBS pH 6.8), A190-PD-60 dispersion (dispersed in a mixture of 1:1 v/v methylcellulose/Tween 80), and A190-PD-60-ME were evaluated using a PAMPA plate (BD BioSciences, San Jose, CA, USA), as described previously. The samples for donor chamber were prepared by diluting free A190-PD-60, A190-PD-60 dispersion, and A190-PD-60-ME with PBS pH 6.8 to a final concentration of 200 µg/mL. […] The concentration of A190-PD-60 which permeated into the acceptor chamber was measured using a HPLC-UV system. The effective permeability coefficient (Pe) was then calculated using the following equation:Pe = −ln(1 − CA[t]/Cequilibrium)/(A × [1/VD + 1/VA] × t)(1) where Pe is the permeability (cm/s), A is the effective filter area (0.228 cm^2), VD is the volume of the donor well (0.2 mL), VA is the volume of the receptor well (0.3 mL), t is the total time of incubation in seconds, CA(t) denotes the concentration of drug in the receptor well at time t, and Cequilibrium represents (CD[t] × VD + CA[t] × VA)/(VD + VA), where CD(t) denotes the concentration of drug in the donor well at time t.

Aqueous solubility = format: physicochemical; settings: thermodynamic from solid; deionized water, 25 °C, 48 h equilibrium
Protocol: Aqueous solubility of each prodrug was assessed using deionized water. In brief, an excess amount of each prodrug was placed in a stoppered vial containing 1 mL of water. Each sample was vortexed and kept in an isothermal shaker maintained at 25 ± 1.0 °C to reach equilibrium for 48 h. The resulting mixture was centrifuged at 4000× g for 15 min, and the supernatant was collected and diluted with ACN followed by filtration with a 0.22 μm filter. The drug concentrations for all prodrugs were measured using HPLC-UV. Chromatographic separation was achieved using an Agilent Pursuit XRs 5 C18 column (250 × 4.6 mm) with a UV-detector system. The mobile phase consisted of ACN and water, both containing 0.1% trifluoroacetic acid in a ratio of 80:20 v/v, with a flow rate of 1 mL/min at 25 °C.

HepG2 cells [11] = assay: MTT cell viability assay, HepG2; format: cell-based, human; settings: HepG2, 50 µM, 24 h and 48 h
Protocol: as §2

[12] = Solubility in microemulsion excipients; format: physicochemical; settings: for solubility at 72 h: thermodynamic from solid, 25 °C
Protocol: Enhancement of drug solubility is the primary factor considered when evaluating ME components. To determine the solubility of A190-PD-60, an excess amount of A190-PD-60 was added to 1 g of each of the tested oils, surfactants and co-surfactants in glass vials with stoppers. A190-PD-60 and excipients were mixed together and vortexed. The mixtures were kept at a temperature of 25 ± 1.0 °C in an isothermal shaker for 72 h to achieve equilibrium. The mixtures were then centrifuged at 10,000× g for 15 min. The resulting supernatants were filtered using […] membrane filters and concentrations of A190-PD-60 in the filtrates were quantified via HPLC-UV analysis. Oils, emulsifiers, and co-emulsifiers with the highest solubilities were chosen for further miscibility analysis. For this, 2 mL of the selected excipients were mixed and vortexed for 10 min, then allowed to equilibrate for 1 h. The resulting mixtures were visually inspected for transparency and phase separation.

Structure (SMILES): Cc1cc(CNc2cccc(C(=O)O)c2)ccc1OCc1ccc(F)cc1 [A190, 3-((4-((4-fluorobenzyl)oxy)-3-methylbenzyl)amino)benzoic acid]
CYP450 liability (CYP450): absence
effective permeability (Pe), dispersion form ([1]; dispersion form): 0.13 ± 0.04 × 10^−6 cm/s
effective permeability (Pe), A190 in PBS ([1]; in PBS): 0.09 ± 0.02 × 10^−6 cm/s
concentration up to which safe (Caco-2 cells [2]): < 50 µM
concentration up to which safe (HepG2 cells [3]): < 50 µM
hERG-related cardiotoxicity (hERG): absence
subtype selectivity (PPARα; PPAR-α over γ/δ isoforms): > 2700 fold
EC50 (PPARα; PPARα agonism): < 40 nM
microsomal metabolic stability [4]: acceptable

half-life at 100 μM [5]: 7.2 h
original concentration retained after 120 min in rabbit plasma ([5]; 100 μM, 120 min): ≥ 80%
Prodrug bioconversion half-life (Rabbit plasma) [5]: 7.2 h
half-life at 100 μM [6]: 9.6 h
original concentration retained after 120 min in rat plasma ([6]; 100 μM, 120 min): ≥ 80%
Prodrug bioconversion half-life (Rat plasma) [6]: 9.6 h
drug remaining at 2 h [7]: about 40%
Structure (SMILES): COC(=O)c1cccc(NCc2ccc(OCc3ccc(F)cc3)c(C)c2)c1 [A190-PD-9, Methyl 3-((4-((4-Fluorobenzyl)oxy)-3-Methylbenzyl)amino)benzoate]

half-life at 100 μM [5]: 8.2 h
Prodrug bioconversion half-life (Rabbit plasma) [5]: 8.2 h
half-life at 100 μM [6]: 2.6 h
Prodrug bioconversion half-life (Rat plasma) [6]: 2.6 h
drug remaining at 2 h [7]: 10%
Structure (SMILES): CCOC(=O)c1cccc(NCc2ccc(OCc3ccc(F)cc3)c(C)c2)c1 [A190-PD-14, Ethyl 3-((4-((4-Fluorobenzyl)oxy)-3-Methylbenzyl)amino)benzoate]

BCS class [9]: BCS Class IV
half-life at 100 μM [5]: 0.5 h
Prodrug bioconversion half-life (Rabbit plasma) [5]: 0.5 h
Effective Permeability Across Artificial Membrane (Pe) [10]: < 0.1 ×10^−6, cm/s
Effective Permeability Across Artificial Membrane (Pe) ([10]; listed as A190-PD-60 in PBS): BLD
half-life at 100 μM [6]: 0.3 h
Prodrug bioconversion half-life (Rat plasma) [6]: 0.3 h
drug remaining at 2 h [7]: over 80%
solubility at 48 h (Aqueous solubility): 1.4 ± 0.23 µg/mL (≈ 0.00293 mM)
solubility in Capryol 90 relative to Maisine oil [12]: 13.9 fold
solubility in Capryol 90 relative to oleic acid [12]: 4.8 fold
solubility at 72 h ([12]; Capryol 90, oil or lipid, read-out: Solubility in Capryol 90): 4450 ± 310 µg/mL (≈ 9.32 mM)
solubility at 72 h ([12]; Cremophor EL, organic solvent or mixture, read-out: Solubility in Cremophor EL): 9050 ± 40 µg/mL (≈ 19 mM)
solubility at 72 h ([12]; Labrafil M, oil or lipid, read-out: Solubility in Labrafil M): 6580 ± 190 µg/mL (≈ 13.8 mM)
solubility at 72 h ([12]; Lauroglycol FCC, oil or lipid, read-out: Solubility in Lauroglycol FCC): 4590 ± 50 µg/mL (≈ 9.61 mM)
solubility at 72 h ([12]; Maisine oil, oil or lipid, read-out: Solubility in Maisine oil): 320 ± 300 µg/mL (≈ 0.67 mM)
solubility at 72 h ([12]; Oleic acid, oil or lipid, read-out: Solubility in Oleic acid): 920 ± 40 µg/mL (≈ 1.93 mM)
solubility at 72 h ([12]; Peceol, oil or lipid, read-out: Solubility in Peceol): 2170 ± 70 µg/mL (≈ 4.54 mM)
solubility at 72 h ([12]; Polypropylene glycol, organic solvent or mixture, read-out: Solubility in Polypropylene glycol): 3790 ± 620 µg/mL (≈ 7.94 mM)
solubility at 72 h ([12]; Transcutol HP, organic solvent or mixture, read-out: Solubility in Transcutol HP): 14100 ± 140 µg/mL (≈ 29.5 mM)
solubility at 72 h ([12]; Tween 80, organic solvent or mixture, read-out: Solubility in Tween 80): 9170 ± 70 µg/mL (≈ 19.2 mM)
Structure (SMILES): Cc1cc(CNc2cccc(C(=O)OCc3oc(=O)oc3C)c2)ccc1OCc1ccc(F)cc1 [A190-PD-60, (5-Methyl-2-oxo-1,3-dioxol-4-yl)methyl3-((4-((4-Fluorobenzyl)oxy)-3-methylbenzyl)amino)benzoate]
cytotoxicity at highest tested concentration (Caco-2 cells [8]): no significant cytotoxicity
cytotoxicity at highest tested concentration (HepG2 cells [11]): no significant cytotoxicity

half-life at 100 μM [5]: 1.4 h
Prodrug bioconversion half-life (Rabbit plasma) [5]: 1.4 h
half-life at 100 μM [6]: 6.8 h
Prodrug bioconversion half-life (Rat plasma) [6]: 6.8 h
drug remaining at 2 h [7]: 10%
Structure (SMILES): Cc1cc(CNc2cccc(C(=O)OC(C)C)c2)ccc1OCc1ccc(F)cc1 [A190-PD-154, Isopropyl 3-((4-((4-Fluorobenzyl)oxy)-3-Methylbenzyl)amino)benzoate]
